Assay results as given in patent publication US20230310629A1, “BISPECIFIC ANTIBODY-DRUG CONJUGATES TARGETING EGFR AND MUC1 AND USES THEREOF” (Merck Patent GmbH, priority 2020, published 2023).

Assays:
NCI-H1975 cells = assay: cells; assay type: cell-based; conditions: Homo sapiens
Experimental: (§1) NSCLC cells NCI-H292 (EGFR wild type (wt)), HCC827 (EGFR del E746-A750), and NCI-H1975 (EGFR L858R/T790M) were all purchased from ATCC. NCI-H292 and NCI-H1975 were cultured in RPMI1640 media with stable L-glutamine (Millipore® Sigma), 10% FBS (Millipore® Sigma) and 1 mM sodium pyruvate (Gibco®, Thermo Fisher Scientific®, or Millipore® Sigma). HCC827 cells were cultured in RPMI1640 media with stable 2 mM L-glutamine, 2.5 g/L D-(+)-glucose solution (Millipore® Sigma), 10 mM HEPES (Millipore® Sigma), 10% FBS, and 1 mM sodium pyruvate (Gibco®, Thermo Fisher Scientific®, or Millipore® Sigma).
(§2) For cytotoxicity testing, cell monolayers were washed once with Gibco® D-PBS (Thermo Fisher Scientific®) and detached from the cell culture flask using Accutase® (Millipore® Sigma). Viable cells were counted with the automated cell counter LUNA-FL™ (Logos Biosystems) using 0.4% Gibco® trypan blue solution (Thermo Fisher Scientific®). A total of 625 cells (NCI-H292), 1250 cells (NCI-H1975) or 3000 cells (HCC827) were plated in 90 μl cell culture medium per well of a 96-well black/clear flat bottom TC-treated imaging microplate (Corning®) and cultured overnight. A ten-fold starting concentration of ADCs or compounds and a respective serial dilution (1:4) were prepared in cell culture medium briefly before use. Wells were supplied with 10 μl ADC or compound solution. Treatment was performed in technical triplicates. […] Untreated control cells for ADCs or EGFR tyrosine kinase inhibitors (TKIs) received a corresponding amount of dilution media or dimethylsulfoxide (DMSO; Millipore Sigma), respectively. For subsequent cell viability measurement, 100 μl Cell Titer-Glo® reagent (Promega™ Corp, Madison, WI, USA) was pipetted in each well, and plates were further processed according the manufacturer's instructions.

NCI-H292 cells = assay: cells; assay type: cell-based; conditions: Homo sapiens
Experimental: as §1, §2

C=CC(=O)Nc1cc(Nc2nccc(-c3cn(C)c4ccccc34)n2)c(OC)cc1N(C)CCN(C)C [Molecule 15, osimertinib] was tested, and the IC50 (NCI-H1975 cells; NCI-H1975, […], read-out: Geomean IC50) was […], the Emax (NCI-H1975 cells; NCI-H1975, read-out: geomean span (% efficacy)) was […] and the IC50 (NCI-H292 cells; NCI-H292, […], read-out: Geomean IC50) was 570 nM. The Emax (NCI-H292 cells; NCI-H292, read-out: geomean span (% efficacy)) was 100%.
